Measured values reported in patent US10994015B2, “EGFR proteolysis targeting chimeric molecules and associated methods of use” (Arvinas Operations, Inc., priority 2016, dated 2021).

Legend:
[1] = molecular target: EGFR L858R/T790M/C797S triple mutant (H520*) (Homo sapiens (Human), UniProt P00533, C797S/L858R/T790M); assay: EGFR protein degradation assay (Western blot); format: cell-based; conditions: 72 hours, 300 nM to 10 nM
Summary of the method: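 EGFR loss in the triple-mutant line measured by immunoblot: clarified lysates normalised by BCA, run on 4-12% Bis-Tris gels, blotted to PVDF, probed with HRP anti-rabbit secondary. Before lysis, cells were dosed from 1, 0.3, 0.1, 0.03 and 0.01 mM DMSO stocks (not final concentrations) after overnight culture at 37° C.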

[2] = molecular target: HER3 (Homo sapiens (Human), UniProt P21860); assay: TR-FRET assay for ERBB kinases; format: biochemical; conditions: geometric mean if measured more than once
[3] = molecular target: EGFR L858R/T790M double mutant (H1975) (Homo sapiens (Human), UniProt P00533, L858R/T790M); assay: EGFR protein degradation assay (Western blot); format: cell-based; conditions: 72 hours, 300 nM to 10 nM
Summary of the method: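 Cells carrying the relevant EGFR form were plated at 300,000 cells per well in 6-well plates and left to attach overnight. After washing in ice-cold PBS, cells were lysed in 400 μl lysis buffer with protease inhibitors, scraped, and clarified at 10 000 rpm for 10 minutes. EGFR levels were then assessed by Western blot with tubulin as loading control.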

[4] = molecular target: EGFR Exon20NPG (Homo sapiens (Human), UniProt P00533, INS770NPG); assay: TR-FRET assay for ERBB kinases; format: biochemical; conditions: geometric mean if measured more than once
Summary of the method: (§1)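 Compounds pre-incubated 10 min with kinase in HEPES pH 7.5 buffer (MgCl2, DTT, Pluronic), then reaction started with substrate mix (3 mM ATP, 30 µM fluorescein-poly-GluTyr, stock levels) for 10 min at room temperature. EDTA-quenched, detected by Tb-pY20 antibody TR-FRET (520/490 nm emission).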

[5] = molecular target: EGFR WT (Homo sapiens (Human), UniProt P00533); assay: TR-FRET assay for ERBB kinases; format: biochemical; conditions: geometric mean if measured more than once
Summary of the method: (§2)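 Phosphotyrosine on fluorescein poly-GluTyr was detected by Tb-pY20 antibody after EDTA quench, reading emission at 520 and 490 nm. The kinase was exposed to compound for 10 min before an ATP-containing substrate mix (3 mM ATP as added) was introduced. Turnover lasted 10 min at room temperature.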

[6] = molecular target: EGFR L858R/T790M (Homo sapiens (Human), UniProt P00533, L858R/T790M); assay: TR-FRET assay for ERBB kinases; format: biochemical; conditions: geometric mean if measured more than once
Summary of the method: as §2

[7] = molecular target: EGFR L858R/T790M/C797S (Homo sapiens (Human), UniProt P00533, C797S/L858R/T790M); assay: TR-FRET assay for ERBB kinases; format: biochemical; conditions: geometric mean if measured more than once
Summary of the method: as §2

[8] = molecular target: EGFR-wt (MDA-MB-231 or MCF7 or A549 or OVCAR8) (Homo sapiens (Human), UniProt P00533); assay: EGFR protein degradation assay (Western blot); format: cell-based; conditions: 72 hours, 300 nM to 10 nM
Summary of the method: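 Cells carrying the relevant EGFR form were plated at 300,000 per well in 6-well plates and left overnight to attach. For harvest, cells were rinsed once in ice-cold PBS and lysed in 400 μl lysis buffer containing protease inhibitors. Lysates were cleared at 10 000 rpm for 10 minutes and their protein content measured by BCA. Then 10 μg per sample was separated by SDS/PAGE at 165V for 2 hours, and EGFR was detected by ECL on a Chemidoc.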

[9] = molecular target: EGFR Δ19/746/750 T790M (Homo sapiens (Human), UniProt P00533, DEL746-750/T790M); assay: TR-FRET assay for ERBB kinases; format: biochemical; conditions: geometric mean if measured more than once
Summary of the method: as §1

[10] = molecular target: EGFR Δ19/746/750 (Homo sapiens (Human), UniProt P00533, DEL746-750); assay: TR-FRET assay for ERBB kinases; format: biochemical; conditions: geometric mean if measured more than once
Summary of the method: as §1

Chain of EGFR WT (P00533 25-1210): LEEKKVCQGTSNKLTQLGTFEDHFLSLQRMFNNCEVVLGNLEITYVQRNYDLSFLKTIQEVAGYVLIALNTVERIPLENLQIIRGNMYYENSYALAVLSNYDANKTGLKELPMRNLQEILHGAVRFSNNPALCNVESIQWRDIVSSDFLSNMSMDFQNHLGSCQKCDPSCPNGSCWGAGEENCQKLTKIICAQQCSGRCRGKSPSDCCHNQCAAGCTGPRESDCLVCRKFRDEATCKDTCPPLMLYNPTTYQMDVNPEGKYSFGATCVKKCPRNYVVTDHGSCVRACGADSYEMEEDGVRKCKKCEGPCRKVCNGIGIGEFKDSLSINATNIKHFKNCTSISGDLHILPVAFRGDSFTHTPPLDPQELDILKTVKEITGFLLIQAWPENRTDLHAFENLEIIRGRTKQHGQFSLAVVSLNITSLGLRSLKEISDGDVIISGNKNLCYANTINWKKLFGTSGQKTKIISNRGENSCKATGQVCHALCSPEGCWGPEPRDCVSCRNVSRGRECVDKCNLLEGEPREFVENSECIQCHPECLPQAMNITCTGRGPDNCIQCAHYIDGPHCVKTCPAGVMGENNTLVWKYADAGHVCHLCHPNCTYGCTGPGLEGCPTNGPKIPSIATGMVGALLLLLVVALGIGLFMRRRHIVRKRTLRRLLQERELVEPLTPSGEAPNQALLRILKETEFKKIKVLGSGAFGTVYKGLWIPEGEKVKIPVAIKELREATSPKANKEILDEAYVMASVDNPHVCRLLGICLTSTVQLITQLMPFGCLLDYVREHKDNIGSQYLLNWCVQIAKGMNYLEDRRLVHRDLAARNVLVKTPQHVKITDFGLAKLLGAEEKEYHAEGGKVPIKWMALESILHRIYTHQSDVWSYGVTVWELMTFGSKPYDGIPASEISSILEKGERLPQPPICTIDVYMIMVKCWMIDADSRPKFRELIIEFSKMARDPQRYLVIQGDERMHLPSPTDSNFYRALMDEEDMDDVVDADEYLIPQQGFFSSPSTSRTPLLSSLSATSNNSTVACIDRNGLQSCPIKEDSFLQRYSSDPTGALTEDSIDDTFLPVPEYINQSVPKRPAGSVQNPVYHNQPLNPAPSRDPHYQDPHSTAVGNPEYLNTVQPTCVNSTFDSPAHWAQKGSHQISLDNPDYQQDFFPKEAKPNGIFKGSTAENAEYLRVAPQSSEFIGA
Chain of HER3 (P21860 20-1342, species assumed): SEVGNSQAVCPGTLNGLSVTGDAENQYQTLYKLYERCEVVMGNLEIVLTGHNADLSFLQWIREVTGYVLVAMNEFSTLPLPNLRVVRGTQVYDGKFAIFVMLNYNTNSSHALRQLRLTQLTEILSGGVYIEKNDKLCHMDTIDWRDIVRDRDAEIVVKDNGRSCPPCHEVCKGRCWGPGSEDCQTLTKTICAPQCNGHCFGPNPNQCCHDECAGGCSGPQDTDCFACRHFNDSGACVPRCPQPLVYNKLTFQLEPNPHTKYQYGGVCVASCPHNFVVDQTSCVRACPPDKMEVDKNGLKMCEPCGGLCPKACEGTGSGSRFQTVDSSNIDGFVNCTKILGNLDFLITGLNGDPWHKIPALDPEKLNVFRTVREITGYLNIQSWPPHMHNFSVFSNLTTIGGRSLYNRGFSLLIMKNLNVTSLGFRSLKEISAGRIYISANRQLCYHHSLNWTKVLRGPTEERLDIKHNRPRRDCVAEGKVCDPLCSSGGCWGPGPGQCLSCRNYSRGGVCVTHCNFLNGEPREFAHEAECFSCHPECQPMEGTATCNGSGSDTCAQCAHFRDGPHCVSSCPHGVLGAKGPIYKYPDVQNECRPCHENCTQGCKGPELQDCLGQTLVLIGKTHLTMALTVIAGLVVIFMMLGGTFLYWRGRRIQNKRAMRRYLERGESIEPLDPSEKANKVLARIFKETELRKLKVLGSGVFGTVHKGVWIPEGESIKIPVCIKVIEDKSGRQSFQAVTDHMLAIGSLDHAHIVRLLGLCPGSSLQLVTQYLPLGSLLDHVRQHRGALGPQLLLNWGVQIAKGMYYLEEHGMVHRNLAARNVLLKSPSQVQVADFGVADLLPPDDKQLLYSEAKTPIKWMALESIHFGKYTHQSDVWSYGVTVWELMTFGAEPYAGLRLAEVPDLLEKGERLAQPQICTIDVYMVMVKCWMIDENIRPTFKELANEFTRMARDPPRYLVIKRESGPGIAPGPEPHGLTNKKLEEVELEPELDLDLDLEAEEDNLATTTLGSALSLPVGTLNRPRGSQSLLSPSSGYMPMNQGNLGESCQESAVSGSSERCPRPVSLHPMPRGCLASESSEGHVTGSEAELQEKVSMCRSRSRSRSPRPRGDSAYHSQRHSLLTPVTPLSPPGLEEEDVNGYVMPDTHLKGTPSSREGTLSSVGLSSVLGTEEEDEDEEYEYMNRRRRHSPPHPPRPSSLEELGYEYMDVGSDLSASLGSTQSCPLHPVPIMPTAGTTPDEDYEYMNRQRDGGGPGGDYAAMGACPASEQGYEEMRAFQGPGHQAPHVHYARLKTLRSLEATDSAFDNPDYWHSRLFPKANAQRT
Chain of EGFR Exon20NPG (P00533 other isoform, or with tags, fused parts or gaps del 1-694/ins NPG behind 770 limits assumed): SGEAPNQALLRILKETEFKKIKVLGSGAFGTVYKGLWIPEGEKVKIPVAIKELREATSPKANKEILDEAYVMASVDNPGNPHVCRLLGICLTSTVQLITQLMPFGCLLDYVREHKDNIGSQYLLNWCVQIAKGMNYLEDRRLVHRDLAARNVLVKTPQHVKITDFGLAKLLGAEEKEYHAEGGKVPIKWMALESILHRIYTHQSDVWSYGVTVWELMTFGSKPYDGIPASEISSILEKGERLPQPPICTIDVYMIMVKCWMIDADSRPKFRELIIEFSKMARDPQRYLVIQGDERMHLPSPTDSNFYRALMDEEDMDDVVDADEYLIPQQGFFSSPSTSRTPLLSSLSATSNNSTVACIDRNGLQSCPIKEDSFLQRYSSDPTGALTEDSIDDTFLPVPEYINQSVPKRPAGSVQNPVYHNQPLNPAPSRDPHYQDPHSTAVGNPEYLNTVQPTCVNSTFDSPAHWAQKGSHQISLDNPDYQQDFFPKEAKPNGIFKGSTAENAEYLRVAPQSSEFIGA
Chain of EGFR L858R/T790M/C797S triple mutant (H520*) (P00533 25-1210 T790M/C797S/L858R): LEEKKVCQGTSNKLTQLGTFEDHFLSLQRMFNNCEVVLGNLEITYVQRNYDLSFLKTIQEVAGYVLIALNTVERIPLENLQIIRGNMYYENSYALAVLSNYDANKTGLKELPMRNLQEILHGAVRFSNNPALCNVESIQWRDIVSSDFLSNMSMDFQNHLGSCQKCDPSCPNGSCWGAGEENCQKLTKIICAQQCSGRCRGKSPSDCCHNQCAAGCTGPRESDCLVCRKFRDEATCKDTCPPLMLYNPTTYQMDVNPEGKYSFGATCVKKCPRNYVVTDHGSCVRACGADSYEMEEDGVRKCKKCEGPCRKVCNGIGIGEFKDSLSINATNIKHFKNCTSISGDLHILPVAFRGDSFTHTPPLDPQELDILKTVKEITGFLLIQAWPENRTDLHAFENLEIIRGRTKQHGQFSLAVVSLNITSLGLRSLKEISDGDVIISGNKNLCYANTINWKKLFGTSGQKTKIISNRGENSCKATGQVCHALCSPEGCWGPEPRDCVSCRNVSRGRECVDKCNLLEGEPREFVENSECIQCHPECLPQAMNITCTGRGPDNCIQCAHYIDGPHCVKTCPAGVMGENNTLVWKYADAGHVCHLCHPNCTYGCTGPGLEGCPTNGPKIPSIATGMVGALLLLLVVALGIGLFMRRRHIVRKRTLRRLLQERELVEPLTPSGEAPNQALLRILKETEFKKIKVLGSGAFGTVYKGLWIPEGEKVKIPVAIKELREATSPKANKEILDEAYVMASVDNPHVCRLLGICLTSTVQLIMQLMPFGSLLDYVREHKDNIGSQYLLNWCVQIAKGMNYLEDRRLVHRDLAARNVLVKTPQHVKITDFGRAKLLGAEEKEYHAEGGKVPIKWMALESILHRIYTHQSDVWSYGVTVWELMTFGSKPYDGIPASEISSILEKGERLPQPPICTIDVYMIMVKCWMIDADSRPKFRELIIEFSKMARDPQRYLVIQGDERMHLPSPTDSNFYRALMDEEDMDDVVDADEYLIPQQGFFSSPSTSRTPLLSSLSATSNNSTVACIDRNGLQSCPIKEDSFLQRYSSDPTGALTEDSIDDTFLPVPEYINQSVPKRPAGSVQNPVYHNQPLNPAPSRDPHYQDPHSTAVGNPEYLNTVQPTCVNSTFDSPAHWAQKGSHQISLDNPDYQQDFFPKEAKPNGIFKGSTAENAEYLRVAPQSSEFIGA
Chain of EGFR Δ19/746/750 T790M (P00533 other isoform, or with tags, fused parts or gaps T790M/del 1-694/del 746-750 limits assumed): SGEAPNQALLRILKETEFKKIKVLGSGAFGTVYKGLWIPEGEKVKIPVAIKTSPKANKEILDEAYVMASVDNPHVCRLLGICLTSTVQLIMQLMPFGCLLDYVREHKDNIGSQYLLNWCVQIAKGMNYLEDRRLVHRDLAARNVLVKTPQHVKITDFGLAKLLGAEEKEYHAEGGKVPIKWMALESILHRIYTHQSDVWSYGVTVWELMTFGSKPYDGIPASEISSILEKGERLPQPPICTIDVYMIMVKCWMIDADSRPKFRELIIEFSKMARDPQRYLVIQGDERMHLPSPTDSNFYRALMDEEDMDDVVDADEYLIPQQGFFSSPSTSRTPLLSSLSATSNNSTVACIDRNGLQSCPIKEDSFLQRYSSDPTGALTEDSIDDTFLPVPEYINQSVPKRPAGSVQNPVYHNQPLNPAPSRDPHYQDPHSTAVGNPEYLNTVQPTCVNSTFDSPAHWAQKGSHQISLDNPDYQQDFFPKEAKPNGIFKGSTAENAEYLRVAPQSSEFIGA

SMILES	EGFR protein remaining, EGFR L858R/T790M/C797S triple mutant [1]	IC50 [2]	EGFR protein remaining, EGFR L858R/T790M double mutant [3]	IC50 [4]	IC50 [5]	IC50 [6]	IC50 [7]	EGFR protein remaining, EGFR-wt [8]	IC50 [9]	IC50 [10]
Cc1ncsc1-c1ccc([C@H](C)NC(=O)[C@H]2C[C@H](O)CN2C(=O)[C@@H](NC(=O)CN2CCN(CCCOCC#Cc3cccc4c3C(=O)N(C(C(=O)Nc3nccs3)c3cc(F)ccc3O)C4)CC2)C(C)(C)C)cc1 (stereo partly drawn) [compound 90]	C (>80% EGFR protein remaining after 72 hours of incubation with the test compound at a concentration of 300 nM)	29 µM	C (>80% EGFR protein remaining after 72 hours of incubation with the test compound at a concentration of 300 nM)	3.4 µM	1.3 µM	0.74 µM	0.69 µM			
Cc1ncsc1-c1ccc([C@H](C)NC(=O)[C@@H]2C[C@@H](O)CN2C(=O)[C@@H](NC(=O)CN2CCN(CCCC#Cc3cccc4c3C(=O)N(C(C(=O)Nc3nccs3)c3cc(F)ccc3O)C4)CC2)C(C)(C)C)cc1 (stereo partly drawn) [Example 80, (2S,4R)-1-((2S)-2-(2-(4-(5-(2-(1-(5-fluoro-2-hydroxyphenyl)-2-oxo-2-(thiazol-2-ylamino)ethyl)-3-oxoisoindolin-4-yl)pent-4-yn-1-yl)piperazin-1-yl)acetamido)-3,3-dimethylbutanoyl)-4-hydroxy-N—((S)-1-(4-(4-methylthiazol-5-yl)phenyl)ethyl)pyrrolidine-2-carboxamide]	C (>80% EGFR protein remaining after 72 hours of incubation with the test compound at a concentration of 300 nM)	> 30 µM	C (>80% EGFR protein remaining after 72 hours of incubation with the test compound at a concentration of 300 nM)	13 µM	4.7 µM	4.7 µM	2.2 µM			
Cc1ncsc1-c1ccc([C@H](C)NC(=O)[C@H]2C[C@H](O)CN2C(=O)[C@@H](NC(=O)COCCOCCOCC#Cc2cccc3c2C(=O)N(C(C(=O)Nc2nccs2)c2cc(F)ccc2O)C3)C(C)(C)C)cc1 (stereo partly drawn) [compound 84]		> 30 µM	C (>80% EGFR protein remaining after 72 hours of incubation with the test compound at a concentration of 300 nM)	5.3 µM	1.8 µM	0.68 µM	0.27 µM			
COC1CCN(c2nccc(Nc3cc4c(cn3)nc(COCCOCCOCCOCCON3CCN(c5ccc6c(c5)C(=O)N(C5CCC(=O)NC5=O)C6=O)CC3)n4C(C)C)n2)CC1 (stereo not drawn) [compound 75]		> 30 µM	C (>80% EGFR protein remaining after 72 hours of incubation with the test compound at a concentration of 300 nM)	> 30 µM	> 30 µM	> 30 µM	> 30 µM			
COC1CCN(c2nccc(Nc3cc4c(cn3)nc(COCCOCCON3CCN(c5ccc6c(c5)C(=O)N(C5CCC(=O)NC5=O)C6=O)CC3)n4C(C)C)n2)CC1 (stereo not drawn) [compound 74]		> 30 µM	C (>80% EGFR protein remaining after 72 hours of incubation with the test compound at a concentration of 300 nM)	> 30 µM	> 30 µM	> 30 µM	10 µM			
COC1CCN(c2nccc(Nc3cc4c(cn3)nc(COCCON3CCN(c5ccc6c(c5)C(=O)N(C5CCC(=O)NC5=O)C6=O)CC3)n4C(C)C)n2)CC1 (stereo not drawn) [compound 72]		> 30 µM	C (>80% EGFR protein remaining after 72 hours of incubation with the test compound at a concentration of 300 nM)	22 µM	> 30 µM	> 30 µM	30 µM			
O=C1CCC(N2C(=O)c3ccc(NCCOCCOCC#Cc4cccc5c4C(=O)N(C(C(=O)Nc4nccs4)c4cc(F)ccc4O)C5)cc3C2=O)C(=O)N1 (stereo not drawn) [compound 83]		> 30 µM	C (>80% EGFR protein remaining after 72 hours of incubation with the test compound at a concentration of 300 nM)	> 30 µM	3 µM	2.5 µM	1.2 µM			
O=C1CCC(N2C(=O)c3ccc(NCCOCCOCCOCC#Cc4cccc5c4C(=O)N(C(C(=O)Nc4nccs4)c4cc(F)ccc4O)C5)cc3C2=O)C(=O)N1 (stereo not drawn) [Example 82, 2-(7-(3-(2-(2-(2-((2-(2,6-dioxopiperidin-3-yl)-1,3-dioxoisoindolin-5-yl)amino)ethoxy)ethoxy)ethoxy)prop-1-yn-1-yl)-1-oxoisoindolin-2-yl)-2-(5-fluoro-2-hydroxyphenyl)-N-(thiazol-2-yl)acetamide]		> 30 µM	C (>80% EGFR protein remaining after 72 hours of incubation with the test compound at a concentration of 300 nM)	> 30 µM	3.8 µM	0.77 µM	0.45 µM			
COC1CCN(c2nccc(Nc3cc4c(cn3)nc(COCCCN3CCN(CCCOc5ccc6c(c5)C(=O)N(C5CCC(=O)NC5=O)C6=O)CC3)n4C(C)C)n2)CC1 (stereo not drawn) [compound 89]		> 30 µM	C (>80% EGFR protein remaining after 72 hours of incubation with the test compound at a concentration of 300 nM)	> 30 µM	> 30 µM	1.6 µM	0.65 µM			
COC1CCN(c2nccc(Nc3cc4c(cn3)nc(COCCOCCOCCOCCOCC(=O)N[C@H](C(=O)N3C[C@H](O)C[C@H]3C(=O)N[C@@H](C)c3ccc(-c5scnc5C)cc3)C(C)(C)C)n4C(C)C)n2)CC1 [Example 81, (2S,4R)-1-((S)-18-(tert-butyl)-1-(1-isopropyl-6-((2-(4-methoxypiperidin-1-yl)pyrimidin-4-yl)amino)-1H-imidazo[4,5-c]pyridin-2-yl)-16-oxo-2,5,8,11,14-pentaoxa-17-azanonadecan-19-oyl)-4-hydroxy-N—((S)-1-(4-(4-methylthiazol-5-yl)phenyl)ethyl)pyrrolidine-2-carboxamide]		> 30 µM	C (>80% EGFR protein remaining after 72 hours of incubation with the test compound at a concentration of 300 nM)	7.1 µM	2.4 µM	8.6 µM	> 30 µM			
CC(C)n1nc(N2CC(CN3CCN(CC4CCN(c5ccc6c(c5)C(=O)N(C5CCC(=O)NC5=O)C6=O)CC4)CC3)C2)c2cnc(Nc3ccnc(-c4cnn(S(=O)(=O)C5CC5)c4)n3)cc21 (stereo not drawn) [compound 313]	A (≤50% EGFR protein remaining after 72 hours of incubation with the test compound at a concentration between 300 nM and 10 nM)				0.0014 µM	0.00029 µM	0.00026 µM	C (>80% EGFR protein remaining after 72 hours of incubation with the test compound at a concentration of 300 nM)	0.0016 µM	0.0075 µM
COC1CCN(c2nccc(Nc3cc4c(cn3)nc(COCCOCCOCCOCC(=O)N[C@H](C(=O)N3C[C@@H](O)C[C@@H]3C(=O)N[C@@H](C)c3ccc(-c5scnc5C)cc3)C(C)(C)C)n4C(C)C)n2)CC1 [compound 79]		> 30 µM	C (>80% EGFR protein remaining after 72 hours of incubation with the test compound at a concentration of 300 nM)	> 30 µM	> 30 µM	29 µM	7.6 µM			
COC1CCN(c2nccc(Nc3cc4c(cn3)nc(COCCOCC(=O)N[C@H](C(=O)N3C[C@@H](O)C[C@@H]3C(=O)N[C@@H](C)c3ccc(-c5scnc5C)cc3)C(C)(C)C)n4C(C)C)n2)CC1 [compound 77]		> 30 µM	C (>80% EGFR protein remaining after 72 hours of incubation with the test compound at a concentration of 300 nM)	12 µM	24 µM	9.1 µM	9.4 µM			
